Measurements: ChEMBL document CHEMBL1201862, “PubChem BioAssay data set” (2004)
The source made the active and inactive calls.

Legend:
[1] = biological target: Arf-GAP with SH3 domain, ANK repeat and PH domain-containing protein 1 (Homo sapiens, UniProt Q9ULH1); assay type: functional;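 also: biochemical fluorescence polarization dose–response screen measuring inhibition of ASAP1; ASAP1 GAP domain stimulating GTP hydrolysis by truncated human ARF1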
[2] = biological target: Beta-galactosidase (Escherichia coli, UniProt Q8VNN2); test: Dose response counterscreen for EBI2 assay utilizing the enzyme, b-galactosidase.; assay type: functional
[3] = NIH3T3 cell viability loss – ATP luminescence, mouse fibroblasts, counter-screen, dose response (AID 2010); assay type: functional, cell-based;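 also: cells exposed to compound for about 90 hours before reading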
[4] = Trypanosoma cruzi growth suppression in host cells – NIH3T3 host cells, beta-gal luminescence, confirmation (AID 2044); assay type: functional, cell-based;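 also: intracellular parasites grown in NIH/3T3 mouse fibroblasts as host cells; luminescent beta-galactosidase reporter signal from transgenic T. cruzi replicating inside host cells; inhibitors lower the luminescence signal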
[5] = biological target: T1, Low molecular weight phosphotyrosine protein phosphatase (Homo sapiens, UniProt P24666); assay type: functional; details: read-out: IC50_Mean
T1 sequence (P24666 whole entry): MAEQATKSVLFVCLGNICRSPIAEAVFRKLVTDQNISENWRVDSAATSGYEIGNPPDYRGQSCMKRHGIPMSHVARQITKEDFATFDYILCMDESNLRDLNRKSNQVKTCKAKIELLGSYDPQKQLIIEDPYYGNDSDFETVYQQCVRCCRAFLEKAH

[6] = biological target: T1, Low molecular weight phosphotyrosine protein phosphatase; assay type: functional; details: read-out: IC50_Mean; remark: listed apart in the source
[7] = biological target: Tyrosine-protein phosphatase non-receptor type 5 (Homo sapiens, UniProt P54829); test: PTPN5 enzyme inhibition – biochemical, fluorescence intensity, uHTS hits, confirmation (AID 602372); assay type: functional; details: read-out: IC50_Mean
[8] = biological target: Tyrosine-protein phosphatase non-receptor type 11 (Homo sapiens, UniProt Q06124); test: PTPN11 enzyme inhibitors – biochemical, selectivity assay for STEP inhibitor project, dose response (AID 602367); assay type: functional; details: read-out: IC50_Mean
[9] = biological target: T2, Small ubiquitin-related modifier 1 (Homo sapiens, UniProt P63165); test: SUMO1 protein-protein binding blockers, potency – biochemical, FRET, dose response (AID 624383); assay type: functional; details: read-out: IC50_Mean
[10] = biological target: Dual specificity protein phosphatase 3 (Homo sapiens, UniProt P51452); test: VHR phosphatase inhibition, dose response, selectivity assay for STEP inhibitor project, biochemical (AID 602374); assay type: functional; details: read-out: IC50_Mean
[11] = biological target: T3, Carboxy-terminal domain RNA polymerase II polypeptide A small phosphatase 1 (Homo sapiens, UniProt Q9GZU7); test: CTDSP1 inhibitors, concentration-response, biochemical, absorbance readout, ultra-high-throughput screen actives (AID 540297); assay type: functional
T3 sequence (Q9GZU7 whole entry): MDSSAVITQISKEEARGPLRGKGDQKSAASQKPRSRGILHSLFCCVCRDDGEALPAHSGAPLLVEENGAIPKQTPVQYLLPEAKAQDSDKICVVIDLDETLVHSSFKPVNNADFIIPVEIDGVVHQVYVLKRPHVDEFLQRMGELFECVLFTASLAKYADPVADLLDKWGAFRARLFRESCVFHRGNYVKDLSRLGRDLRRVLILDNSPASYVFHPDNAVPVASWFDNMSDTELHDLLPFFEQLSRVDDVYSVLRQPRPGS

[12] = biological target: T2, Small ubiquitin-related modifier 1; test: SUMO1 protein interaction blockers, potency – biochemical, fluorescence polarization, uHTS hits, dose response (AID 624382); assay type: functional; details: read-out: IC50_Mean
[13] = biological target: DNA repair protein RAD52 homolog (Homo sapiens, UniProt P43351); assay type: functional, biochemical
[14] = biological target: Steroidogenic factor 1 (Homo sapiens, UniProt Q13285); test: Counterscreen for inverse agonists of the liver receptor homolog-1 (LRH-1; NR5A2): Luminescence-based cell-based high throughput dose response assay to identify inverse agonists of the Steroidogenic Factor 1 Nuclear Receptor (SF1; NR5A1).; assay type: functional
[15] = nonselective StAR promoter luciferase inhibitors – cell-based, luminescence, luciferase reporter, counter-screen for LRH-1 inverse agonist project, dose response (AID 651969); assay type: functional
[16] = biological target: Nuclear receptor subfamily 5 group A member 2 (Homo sapiens, UniProt O00482); assay type: functional, cell-based;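 also: HEK293T cells transfected with LRH-1 and a StAR promoter luciferase reporter; potency for inhibitors that lower LRH-1 driven reporter light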
[17] = test system: H9c2; test: cells; assay type: functional, cell-based; details: Rattus norvegicus, H9c2, Myocardium;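 also: confirmatory concentration-response retest of ultra-high-throughput screening hits for modulation of myocardial damage; cell death induced by hydrogen peroxide oxidative stress; compound pretreatment for 60 min then peroxide exposure for 2 h; potency is for protecting the cells against peroxide damage rather than for killing them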
[18] = biological target: T4, Nuclear receptor subfamily 0 group B member 1 (Homo sapiens, UniProt P51843); assay type: functional, cell-based;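 also: HEK293T cells transfected with SF-1 and DAX-1 plus StAR promoter luciferase reporter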
T4 sequence (P51843 whole entry): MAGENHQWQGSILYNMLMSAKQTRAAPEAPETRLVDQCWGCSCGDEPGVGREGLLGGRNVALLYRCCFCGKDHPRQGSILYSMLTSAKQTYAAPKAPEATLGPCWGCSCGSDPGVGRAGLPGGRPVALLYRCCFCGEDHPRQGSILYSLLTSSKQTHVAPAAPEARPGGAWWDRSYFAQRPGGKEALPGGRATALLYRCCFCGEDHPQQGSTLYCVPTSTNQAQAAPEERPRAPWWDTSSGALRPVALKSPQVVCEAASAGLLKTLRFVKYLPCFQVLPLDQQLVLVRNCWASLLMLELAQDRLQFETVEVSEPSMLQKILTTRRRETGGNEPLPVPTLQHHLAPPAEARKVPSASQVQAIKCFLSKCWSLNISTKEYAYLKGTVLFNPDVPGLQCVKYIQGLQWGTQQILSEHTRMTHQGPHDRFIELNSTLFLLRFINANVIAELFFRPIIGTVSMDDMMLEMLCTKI

[19] = cells; assay type: functional, cell-based

Chain of Beta-galactosidase (Q8VNN2 whole entry): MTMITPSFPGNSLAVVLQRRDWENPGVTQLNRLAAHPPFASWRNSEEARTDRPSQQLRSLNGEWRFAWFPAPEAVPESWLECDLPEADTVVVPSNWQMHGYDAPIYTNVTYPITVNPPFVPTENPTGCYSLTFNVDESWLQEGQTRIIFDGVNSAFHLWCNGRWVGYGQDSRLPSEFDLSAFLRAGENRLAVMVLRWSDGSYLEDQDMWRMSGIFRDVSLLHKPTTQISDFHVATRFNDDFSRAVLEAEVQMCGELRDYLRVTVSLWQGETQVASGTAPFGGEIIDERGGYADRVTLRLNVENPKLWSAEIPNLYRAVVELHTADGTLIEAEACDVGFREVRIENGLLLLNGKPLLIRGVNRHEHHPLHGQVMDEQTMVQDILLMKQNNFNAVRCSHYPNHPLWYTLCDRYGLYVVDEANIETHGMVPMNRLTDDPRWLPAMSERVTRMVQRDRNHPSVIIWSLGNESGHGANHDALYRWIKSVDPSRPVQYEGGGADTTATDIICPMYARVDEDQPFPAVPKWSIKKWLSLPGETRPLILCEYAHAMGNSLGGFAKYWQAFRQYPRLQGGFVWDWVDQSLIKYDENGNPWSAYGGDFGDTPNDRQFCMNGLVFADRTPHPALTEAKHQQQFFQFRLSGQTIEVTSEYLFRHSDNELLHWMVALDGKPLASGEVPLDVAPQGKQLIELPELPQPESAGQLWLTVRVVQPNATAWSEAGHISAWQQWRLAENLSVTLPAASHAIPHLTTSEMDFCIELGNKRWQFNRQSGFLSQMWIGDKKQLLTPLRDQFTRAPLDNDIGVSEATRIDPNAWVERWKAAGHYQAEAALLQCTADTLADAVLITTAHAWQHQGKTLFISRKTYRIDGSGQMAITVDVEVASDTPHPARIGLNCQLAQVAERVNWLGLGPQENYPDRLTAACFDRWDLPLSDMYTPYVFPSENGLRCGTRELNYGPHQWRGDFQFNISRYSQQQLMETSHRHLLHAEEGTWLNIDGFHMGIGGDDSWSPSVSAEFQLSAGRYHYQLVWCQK
Chain of Arf-GAP with SH3 domain, ANK repeat and PH domain-containing protein 1 (Q9ULH1 whole entry, the tested form may be a part): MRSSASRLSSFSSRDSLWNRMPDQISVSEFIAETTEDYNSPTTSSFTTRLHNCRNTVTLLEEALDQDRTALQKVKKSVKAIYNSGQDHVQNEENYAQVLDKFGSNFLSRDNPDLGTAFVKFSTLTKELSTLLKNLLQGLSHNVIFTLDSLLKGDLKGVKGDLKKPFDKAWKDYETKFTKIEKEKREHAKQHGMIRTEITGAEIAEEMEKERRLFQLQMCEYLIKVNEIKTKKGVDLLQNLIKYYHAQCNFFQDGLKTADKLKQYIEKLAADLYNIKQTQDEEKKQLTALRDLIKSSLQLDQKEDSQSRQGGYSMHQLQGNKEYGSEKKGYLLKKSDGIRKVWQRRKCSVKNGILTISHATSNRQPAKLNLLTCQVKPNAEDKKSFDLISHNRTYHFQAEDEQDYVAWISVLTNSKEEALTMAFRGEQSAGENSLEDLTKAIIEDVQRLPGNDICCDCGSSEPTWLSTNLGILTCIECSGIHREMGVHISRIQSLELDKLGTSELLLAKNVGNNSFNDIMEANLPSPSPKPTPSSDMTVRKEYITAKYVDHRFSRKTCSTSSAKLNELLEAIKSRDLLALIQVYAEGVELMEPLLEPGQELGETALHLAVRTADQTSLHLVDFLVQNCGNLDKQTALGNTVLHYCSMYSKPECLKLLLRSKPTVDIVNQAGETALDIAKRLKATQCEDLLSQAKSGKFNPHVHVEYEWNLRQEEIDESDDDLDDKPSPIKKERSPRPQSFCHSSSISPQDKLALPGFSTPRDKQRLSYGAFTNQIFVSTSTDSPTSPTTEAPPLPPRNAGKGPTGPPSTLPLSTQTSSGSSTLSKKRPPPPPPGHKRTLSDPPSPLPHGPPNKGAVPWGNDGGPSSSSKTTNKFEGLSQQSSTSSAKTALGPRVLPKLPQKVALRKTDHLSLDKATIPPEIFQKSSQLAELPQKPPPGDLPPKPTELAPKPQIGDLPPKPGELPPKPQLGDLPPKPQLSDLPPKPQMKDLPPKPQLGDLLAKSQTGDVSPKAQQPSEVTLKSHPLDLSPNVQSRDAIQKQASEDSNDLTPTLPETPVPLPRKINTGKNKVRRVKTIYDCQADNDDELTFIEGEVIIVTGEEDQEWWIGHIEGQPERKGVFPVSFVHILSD
T2 sequence (P63165 whole entry): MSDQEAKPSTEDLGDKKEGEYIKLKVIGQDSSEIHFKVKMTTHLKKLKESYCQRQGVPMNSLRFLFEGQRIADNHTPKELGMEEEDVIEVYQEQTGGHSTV
Chain of Steroidogenic factor 1 (Q13285 whole entry): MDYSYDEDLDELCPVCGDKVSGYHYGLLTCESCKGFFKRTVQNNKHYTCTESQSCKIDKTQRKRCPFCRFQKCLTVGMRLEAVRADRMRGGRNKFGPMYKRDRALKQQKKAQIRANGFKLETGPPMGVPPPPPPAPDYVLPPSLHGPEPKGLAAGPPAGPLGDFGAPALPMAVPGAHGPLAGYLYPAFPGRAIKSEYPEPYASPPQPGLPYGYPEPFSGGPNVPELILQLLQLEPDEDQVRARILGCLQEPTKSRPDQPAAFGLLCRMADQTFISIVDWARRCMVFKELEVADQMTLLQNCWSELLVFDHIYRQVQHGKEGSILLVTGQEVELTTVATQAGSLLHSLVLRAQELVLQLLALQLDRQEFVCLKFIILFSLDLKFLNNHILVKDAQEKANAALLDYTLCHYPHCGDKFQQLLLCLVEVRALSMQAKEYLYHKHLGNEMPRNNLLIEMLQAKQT
Chain of Tyrosine-protein phosphatase non-receptor type 11 (Q06124 whole entry): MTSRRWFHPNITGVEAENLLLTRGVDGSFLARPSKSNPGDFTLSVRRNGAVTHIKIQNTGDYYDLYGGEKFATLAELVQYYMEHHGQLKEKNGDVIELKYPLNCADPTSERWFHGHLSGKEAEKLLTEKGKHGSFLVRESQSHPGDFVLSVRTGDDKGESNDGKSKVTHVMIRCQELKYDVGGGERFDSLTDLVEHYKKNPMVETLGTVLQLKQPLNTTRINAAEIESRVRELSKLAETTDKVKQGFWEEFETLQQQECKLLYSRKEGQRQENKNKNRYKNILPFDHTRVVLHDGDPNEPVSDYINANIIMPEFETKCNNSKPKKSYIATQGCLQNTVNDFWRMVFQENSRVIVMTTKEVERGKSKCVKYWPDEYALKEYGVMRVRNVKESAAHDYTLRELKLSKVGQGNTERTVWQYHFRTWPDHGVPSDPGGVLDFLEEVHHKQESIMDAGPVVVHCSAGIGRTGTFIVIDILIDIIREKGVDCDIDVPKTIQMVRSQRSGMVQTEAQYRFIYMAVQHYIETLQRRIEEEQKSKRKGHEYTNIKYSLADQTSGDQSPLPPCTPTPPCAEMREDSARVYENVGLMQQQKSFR
Chain of Tyrosine-protein phosphatase non-receptor type 5 (P54829 whole entry): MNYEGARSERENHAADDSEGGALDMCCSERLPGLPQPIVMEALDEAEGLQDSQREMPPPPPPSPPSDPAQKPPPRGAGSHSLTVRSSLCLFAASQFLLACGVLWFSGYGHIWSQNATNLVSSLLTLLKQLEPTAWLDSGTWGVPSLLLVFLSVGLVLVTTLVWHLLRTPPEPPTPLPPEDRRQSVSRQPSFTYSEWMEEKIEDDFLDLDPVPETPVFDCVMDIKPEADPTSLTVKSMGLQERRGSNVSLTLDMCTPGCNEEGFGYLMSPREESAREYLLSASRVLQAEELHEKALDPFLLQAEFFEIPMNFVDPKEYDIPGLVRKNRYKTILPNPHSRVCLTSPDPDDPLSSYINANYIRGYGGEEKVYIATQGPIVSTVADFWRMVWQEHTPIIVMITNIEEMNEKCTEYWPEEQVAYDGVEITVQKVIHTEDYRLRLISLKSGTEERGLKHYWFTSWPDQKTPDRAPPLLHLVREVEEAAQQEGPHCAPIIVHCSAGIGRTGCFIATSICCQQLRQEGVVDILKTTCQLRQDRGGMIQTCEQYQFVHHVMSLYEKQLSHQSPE
Chain of DNA repair protein RAD52 homolog (P43351 whole entry): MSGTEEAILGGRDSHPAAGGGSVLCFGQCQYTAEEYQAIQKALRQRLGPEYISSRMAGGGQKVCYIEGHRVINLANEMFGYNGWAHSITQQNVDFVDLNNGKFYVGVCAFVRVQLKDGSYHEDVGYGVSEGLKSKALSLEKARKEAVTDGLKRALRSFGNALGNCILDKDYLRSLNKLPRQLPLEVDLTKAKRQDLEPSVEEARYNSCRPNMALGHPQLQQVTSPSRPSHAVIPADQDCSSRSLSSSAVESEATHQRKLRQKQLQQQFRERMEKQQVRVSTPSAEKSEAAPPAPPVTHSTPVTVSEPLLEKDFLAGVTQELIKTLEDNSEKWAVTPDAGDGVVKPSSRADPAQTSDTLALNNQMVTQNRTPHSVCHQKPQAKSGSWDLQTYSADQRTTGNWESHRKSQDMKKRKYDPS
Chain of Nuclear receptor subfamily 5 group A member 2 (O00482 whole entry): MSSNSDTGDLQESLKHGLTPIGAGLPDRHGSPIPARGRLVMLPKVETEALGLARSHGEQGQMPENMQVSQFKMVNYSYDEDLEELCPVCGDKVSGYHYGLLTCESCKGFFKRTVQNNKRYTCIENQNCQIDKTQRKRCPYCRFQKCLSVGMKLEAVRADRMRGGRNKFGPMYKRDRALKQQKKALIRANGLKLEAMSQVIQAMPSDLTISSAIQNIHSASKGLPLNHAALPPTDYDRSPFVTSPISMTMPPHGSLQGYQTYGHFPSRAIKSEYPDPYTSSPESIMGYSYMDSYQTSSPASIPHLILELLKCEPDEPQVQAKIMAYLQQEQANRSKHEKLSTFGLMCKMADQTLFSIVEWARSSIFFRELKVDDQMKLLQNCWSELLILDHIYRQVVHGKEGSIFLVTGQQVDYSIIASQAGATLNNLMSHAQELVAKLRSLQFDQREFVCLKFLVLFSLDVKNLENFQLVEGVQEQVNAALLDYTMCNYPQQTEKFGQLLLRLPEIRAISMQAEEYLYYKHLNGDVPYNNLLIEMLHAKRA
Chain of Dual specificity protein phosphatase 3 (P51452 whole entry, the tested form may be a part): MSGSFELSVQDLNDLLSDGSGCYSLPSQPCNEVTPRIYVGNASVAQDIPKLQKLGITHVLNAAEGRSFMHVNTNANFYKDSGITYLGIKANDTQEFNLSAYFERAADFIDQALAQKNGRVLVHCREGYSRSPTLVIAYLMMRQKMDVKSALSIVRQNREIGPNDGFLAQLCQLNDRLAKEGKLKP

Structure (SMILES): COc1ccc(C(=O)Nc2nc3cc4c(cc3s2)OCO4)c(OC)c1
- IC50 [1]: 50.8 µM (inactive)

Structure (SMILES): COc1cccc(-c2cc(C(=O)N3CCN(C(c4ccccc4)c4ccccc4)CC3)no2)c1
- IC50 [2]: > 80 µM (inactive)
- EC50 [3]: 25.2 µM (active)
- EC50 [4]: 1.61 µM (active)

Structure (SMILES): COCCNc1nc(NCc2cc(-c3ccc(OC)cc3)no2)c2sccc2n1
- IC50 [5]: 9.53 µM (active)
- IC50 [6]: 23.3 µM (inactive)

Structure (SMILES): COc1ccc(OCC(=O)N2CCN(S(=O)(=O)c3ccc(Cl)s3)CC2)cc1
- IC50 [2]: > 80 µM (inactive)

Structure (SMILES): O=C(N/N=C/c1ccc(Cl)c([N+](=O)[O-])c1)c1ccc2c(c1)OCCO2
- IC50 [7]: 7.3 µM (active)
- IC50 [8]: 1.93 µM (active)
- IC50 [9]: 9.57 µM (active)
- IC50 [10]: 2.29 µM (active)
- IC50 [11]: 4.44 µM (active)
- IC50 [12]: > 66.6 µM (inactive)
- IC50 [1]: 10.9 µM (inactive)

Structure (SMILES): CN(C)CCCNc1ncnc2oc(-c3ccccc3)c(-c3ccccc3)c12
- AC50 [13]: 21.7 µM (active)

Structure (SMILES): O=C(CCl)NCCCN(C(=O)C(Cl)Cl)c1ccc([N+](=O)[O-])cc1
- IC50 [14]: 4.97 µM (active)
- IC50 [15]: 18.8 µM (inactive)
- IC50 [16]: 7.45 µM (active)

Structure (SMILES): COc1cc(/C=C(\C#N)C(=O)Nc2ccccc2F)ccc1OCCN1CCOCC1
- IC50 [17]: 8.88 µM (active)
- IC50 [18]: > 67.5 µM (inactive)
- IC50 [19]: > 67.5 µM (inactive)
